# Measured values reported in BindingDB's records for PubMed 8863814 (Cyenamid Agricultural Research Center, 1996).
# Several values for one entry are separate records, joined by “and”; a condition that tells them apart may be missing. Equal entries are not always repeated.
# Assays:
# [1] = biological target: T1, Somatostatin receptor type 5 (Rattus norvegicus, UniProt P30938)
# T1 sequence (P30938 whole entry): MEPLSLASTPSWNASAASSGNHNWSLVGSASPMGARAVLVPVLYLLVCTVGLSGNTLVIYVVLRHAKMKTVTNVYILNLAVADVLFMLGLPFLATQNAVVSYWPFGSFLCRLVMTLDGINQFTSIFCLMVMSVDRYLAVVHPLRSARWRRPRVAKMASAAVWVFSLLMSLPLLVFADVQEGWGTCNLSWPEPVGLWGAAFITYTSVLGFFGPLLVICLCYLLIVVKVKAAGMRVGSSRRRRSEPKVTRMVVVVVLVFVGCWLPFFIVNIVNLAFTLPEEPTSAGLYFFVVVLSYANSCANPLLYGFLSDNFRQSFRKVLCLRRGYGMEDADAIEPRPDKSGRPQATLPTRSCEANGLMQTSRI
# [2] = biological target: Somatostatin receptor type 2 (Rattus norvegicus, UniProt P30680)
# Somatostatin receptor type 2, sequence (P30680 whole entry): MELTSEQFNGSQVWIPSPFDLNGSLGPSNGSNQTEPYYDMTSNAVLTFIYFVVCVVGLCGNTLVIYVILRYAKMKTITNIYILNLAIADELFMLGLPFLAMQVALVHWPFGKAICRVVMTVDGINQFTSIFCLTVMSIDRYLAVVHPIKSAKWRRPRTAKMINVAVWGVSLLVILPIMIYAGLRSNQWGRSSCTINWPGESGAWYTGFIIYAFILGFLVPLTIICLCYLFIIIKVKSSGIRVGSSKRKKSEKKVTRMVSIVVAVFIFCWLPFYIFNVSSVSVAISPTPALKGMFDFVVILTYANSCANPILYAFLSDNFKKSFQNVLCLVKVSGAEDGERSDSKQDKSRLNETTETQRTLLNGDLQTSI
# [3] = biological target: Somatostatin receptor type 3 (Rattus norvegicus, UniProt P30936)
# Somatostatin receptor type 3, sequence (P30936 whole entry): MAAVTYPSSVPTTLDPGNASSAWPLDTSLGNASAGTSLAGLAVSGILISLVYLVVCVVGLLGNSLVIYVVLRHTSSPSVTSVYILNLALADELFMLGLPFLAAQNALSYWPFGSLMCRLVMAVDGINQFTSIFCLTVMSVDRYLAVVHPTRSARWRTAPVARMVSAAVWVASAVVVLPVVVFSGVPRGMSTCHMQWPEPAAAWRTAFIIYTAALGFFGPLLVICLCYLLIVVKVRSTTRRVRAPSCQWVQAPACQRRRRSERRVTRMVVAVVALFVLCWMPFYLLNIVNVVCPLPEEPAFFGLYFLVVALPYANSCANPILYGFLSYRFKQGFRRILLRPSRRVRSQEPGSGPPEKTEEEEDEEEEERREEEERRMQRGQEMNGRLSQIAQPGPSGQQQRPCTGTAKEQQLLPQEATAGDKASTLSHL
# [4] = biological target: Somatostatin receptor type 1 (Rattus norvegicus, UniProt P28646)
# Somatostatin receptor type 1, sequence (P28646 whole entry): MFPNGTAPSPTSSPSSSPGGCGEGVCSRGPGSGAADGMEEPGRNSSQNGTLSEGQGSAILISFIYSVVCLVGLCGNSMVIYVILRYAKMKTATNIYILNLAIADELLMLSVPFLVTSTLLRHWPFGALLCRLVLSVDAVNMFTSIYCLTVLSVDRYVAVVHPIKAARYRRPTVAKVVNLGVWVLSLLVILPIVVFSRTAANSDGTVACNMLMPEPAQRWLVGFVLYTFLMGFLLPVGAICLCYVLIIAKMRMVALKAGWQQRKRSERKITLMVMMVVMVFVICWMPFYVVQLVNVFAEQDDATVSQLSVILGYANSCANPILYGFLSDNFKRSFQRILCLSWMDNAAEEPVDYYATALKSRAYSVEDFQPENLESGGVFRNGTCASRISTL
Compound,Ki [1],Ki [2],Ki [3],Ki [4]
C[C@H](N)C(=O)NCC(=O)N[C@@H]1CSSC[C@@H](C(=O)O)NC(=O)[C@H](CO)NC(=O)[C@@H]([C@@H](C)O)NC(=O)[C@H](Cc2ccccc2)NC(=O)[C@@H]([C@@H](C)O)NC(=O)[C@H](CCCCN)NC(=O)[C@@H](Cc2c[nH]c3ccccc23)NC(=O)[C@H](Cc2ccccc2)NC(=O)[C@@H](Cc2ccccc2)NC(=O)[C@H](CC(N)=O)NC(=O)[C@@H](CCCCN)NC1=O,5 nM,–,–,–
CC(=O)N[C@@H](Cc1ccc([N+](=O)[O-])cc1)C(=O)N[C@H]1CSSC[C@@H](C(=O)N[C@@H](Cc2ccc(O)cc2)C(N)=O)NC(=O)[C@H]([C@@H](C)O)NC(=O)[C@H](CCCCN)NC(=O)[C@@H](Cc2c[nH]c3ccccc23)NC(=O)[C@H](Cc2ccc(O)cc2)NC1=O [AcNH-4-NO2-Phe-c[Cys-Tyr-D-Trp-Lys-Thr-Cys]-Tyr-NH2],–,0.1 nM,1000 nM,–
CC(=O)N[C@H](Cc1ccc([N+](=O)[O-])cc1)C(=O)N[C@H]1CSSC[C@H](C(=O)N[C@@H](C(N)=O)[C@H](C)O)NC(=O)[C@@H](C(C)C)NC(=O)[C@H](CCCCN)NC(=O)[C@@H](Cc2c[nH]c3ccccc23)NC(=O)[C@H](Cc2ccc(O)cc2)NC1=O [AcNH-4-NO2-Phe-c[Cys-Tyr-D-Trp-Lys-Thr-Cys]-Tyr-NH2],2.2 nM,–,–,–
CC(=O)N[C@@H](Cc1ccc([N+](=O)[O-])cc1)C(=O)N[C@@H]1CSSC[C@@H](C(=O)N[C@@H](Cc2ccc(O)cc2)C(N)=O)NC(=O)[C@H]([C@@H](C)O)NC(=O)[C@H](CCCCN)NC(=O)[C@@H](Cc2c[nH]c3ccccc23)NC(=O)[C@H](Cc2ccc(O)cc2)NC1=O [AcNH-4-NO2-Phe-c[D-Cys-Tyr-D-Trp-Lys-Thr-Cys]-Tyr-NH2],–,0.3 nM,100 nM,1000 nM
CC(C)[C@@H]1NC(=O)[C@H](CCCCN)NC(=O)[C@@H](Cc2c[nH]c3ccccc23)NC(=O)[C@H](Cc2ccc(O)cc2)NC(=O)[C@@H](NC(=O)[C@@H](N)Cc2ccc([N+](=O)[O-])cc2)CSSC[C@@H](C(=O)N[C@@H](Cc2ccc(O)cc2)C(N)=O)NC1=O [H2N-4-NO2-Phe-c[Cys-Tyr-D-Trp-Lys-Val-Cys]-Tyr-Nh2],–,0.2 nM,300 nM,1000 nM
CC(C)[C@H]1NC(=O)[C@H](CCCCN)NC(=O)[C@@H](Cc2c[nH]c3ccccc23)NC(=O)[C@H](Cc2ccc(O)cc2)NC(=O)[C@@H](NC(=O)[C@@H](N)Cc2ccc([N+](=O)[O-])cc2)CSSC[C@H](C(=O)N[C@@H](C(N)=O)[C@H](C)O)NC1=O [H2N-4-NO2-Phe-c[Cys-Tyr-D-Trp-Lys-Val-Cys]-Tyr-Nh2],0.1 nM and 0.42 nM,–,–,–

# Continued, values first:
Ki [1],Ki [2],Ki [3],Ki [4],Compound
2.5 nM,–,–,–,CC(=O)N[C@H](Cc1ccc([N+](=O)[O-])cc1)C(=O)N[C@@H]1CSSC[C@H](C(=O)N[C@@H](C(N)=O)[C@H](C)O)NC(=O)[C@@H](C(C)C)NC(=O)[C@H](CCCCN)NC(=O)[C@@H](Cc2c[nH]c3ccccc23)NC(=O)[C@H](Cc2ccc(O)cc2)NC1=O [AcNH-4-NO2-Phe-c[D-Cys-Tyr-D-Trp-Lys-Thr-Cys]-Tyr-NH2]
–,12.9 nM,1000 nM,1000 nM,CC(C)[C@@H]1NC(=O)[C@H](CCCCN)NC(=O)[C@@H](Cc2c[nH]c3ccccc23)NC(=O)[C@H](Cc2ccc(O)cc2)NC(=O)[C@H](NC(=O)[C@@H](N)Cc2ccc([N+](=O)[O-])cc2)CSSC[C@@H](C(=O)N[C@@H](Cc2ccc(O)cc2)C(N)=O)NC1=O [H2N-4-NO2-Phe-c[D-Cys-Tyr-D-Trp-Lys-Val-Cys]-Tyr-Nh2]
18.1 nM,–,–,–,CC(C)[C@H]1NC(=O)[C@H](CCCCN)NC(=O)[C@@H](Cc2c[nH]c3ccccc23)NC(=O)[C@H](Cc2ccc(O)cc2)NC(=O)[C@H](NC(=O)[C@@H](N)Cc2ccc([N+](=O)[O-])cc2)CSSC[C@H](C(=O)N[C@@H](C(N)=O)[C@H](C)O)NC1=O [H2N-4-NO2-Phe-c[D-Cys-Tyr-D-Trp-Lys-Val-Cys]-Tyr-Nh2]
